Measured values from ChEMBL document CHEMBL1201862, “PubChem BioAssay data set” (2004).
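Following 48 hours of exposure in 96-well plates, responses at five concentrations were used to interpolate endpoints linearly. The concentration for 50% growth inhibition is given as GI50.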 Activity calls are given as the source filed them. Rule as the data show it: active = GI50 up to about 1.1 µM and inactive = higher.

Key:
Assay in all cases: NCI tumour cell line growth inhibition, 48 h
NCI-H522 = tested on: NCI-H522
OVCAR-5 = tested on: OVCAR-5
SK-OV-3 = tested on: SK-OV-3
SK-MEL-5 = tested on: SK-MEL-5
RPMI-8226 = tested on: RPMI-8226
SF-268 = tested on: SF-268
NCI-H460 = tested on: NCI-H460
COLO 205 = tested on: COLO 205
NCI-H23 = tested on: NCI-H23
CCRF-CEM = tested on: CCRF-CEM
SW-620 = tested on: SW-620
HT-29 = tested on: HT-29
HCT-116 = tested on: HCT-116
DLD-1 = tested on: DLD-1
EKVX = tested on: EKVX
A549 = tested on: A549
K562 = tested on: K562
LOX IMVI = tested on: LOX IMVI
SNB-19 = tested on: SNB-19
MCF7 = tested on: MCF7

Measured: GI50

CC(C(=O)O)c1cnn(-c2ccccc2)c1-n1cccc1 (centres undefined)
inactive: NCI-H522 > 100 µM | OVCAR-5 > 100 µM | SK-OV-3 > 100 µM | SK-MEL-5 > 100 µM | RPMI-8226 > 100 µM | SF-268 > 100 µM | NCI-H460 > 100 µM | COLO 205 > 100 µM | NCI-H23 > 100 µM | CCRF-CEM > 100 µM | SW-620 > 63 µM | HT-29 > 100 µM | HCT-116 > 100 µM | DLD-1 > 100 µM | EKVX > 100 µM | A549 > 100 µM | K562 > 100 µM | LOX IMVI > 100 µM | SNB-19 > 100 µM | MCF7 > 100 µM

COc1ccc(/C=N/n2cnc3c(c2=O)SC(=C(C#N)C#N)N3c2ccccc2)cc1
inactive: NCI-H522 56.2 µM | OVCAR-5 > 100 µM | SK-OV-3 > 100 µM | SK-MEL-5 > 100 µM | RPMI-8226 > 100 µM | SF-268 41.1 µM | NCI-H460 > 100 µM | COLO 205 > 100 µM | NCI-H23 > 100 µM | CCRF-CEM > 100 µM | SW-620 > 100 µM | HT-29 > 100 µM | HCT-116 > 100 µM | DLD-1 > 100 µM | A549 > 100 µM | K562 > 100 µM | SNB-19 > 100 µM

CSc1cc(=O)n2c3ccccc3c3ccnc1c32
inactive: NCI-H522 > 81.8 µM | OVCAR-5 97.1 µM | SK-OV-3 25.6 µM | SK-MEL-5 43.4 µM | RPMI-8226 > 90.8 µM | SF-268 > 49.9 µM | NCI-H460 57 µM | COLO 205 > 100 µM | NCI-H23 > 100 µM | CCRF-CEM > 100 µM | SW-620 > 100 µM | HT-29 > 100 µM | HCT-116 > 100 µM | DLD-1 49.7 µM | EKVX 24.4 µM | A549 > 100 µM | K562 > 100 µM | LOX IMVI > 100 µM | SNB-19 > 64.3 µM | MCF7 34.6 µM

NC(Cc1ccccc1CP(=O)(O)O)C(=O)O (centres undefined)
inactive: NCI-H522 > 100 µM | OVCAR-5 > 100 µM | SK-OV-3 > 100 µM | SK-MEL-5 > 100 µM | RPMI-8226 > 100 µM | SF-268 > 100 µM | NCI-H460 > 100 µM | COLO 205 > 100 µM | NCI-H23 > 100 µM | CCRF-CEM > 100 µM | SW-620 > 100 µM | HT-29 > 100 µM | HCT-116 > 100 µM | EKVX > 100 µM | A549 > 100 µM | K562 > 100 µM | LOX IMVI > 100 µM | SNB-19 > 100 µM | MCF7 > 100 µM

COc1cc2cc[n+]3c(C)c4cc(OC)c(OC)cc4c([O-])c3c2cc1OC
inactive: NCI-H522 18.2 µM | OVCAR-5 > 100 µM | SK-OV-3 > 100 µM | SK-MEL-5 36.8 µM | RPMI-8226 > 100 µM | SF-268 36.3 µM | NCI-H460 > 100 µM | COLO 205 12.4 µM | NCI-H23 87.7 µM | CCRF-CEM 27 µM | SW-620 41.9 µM | HT-29 41.2 µM | HCT-116 89.7 µM | DLD-1 > 100 µM | EKVX > 100 µM | A549 > 100 µM | K562 64.3 µM | SNB-19 > 100 µM

OC(c1ccc(Br)cc1)(c1cccs1)C1CC1 (centres undefined)
inactive: NCI-H522 18.5 µM | OVCAR-5 26.7 µM | SK-OV-3 36.4 µM | SK-MEL-5 18.7 µM | RPMI-8226 21.6 µM | SF-268 20.7 µM | NCI-H460 22.4 µM | COLO 205 19.2 µM | NCI-H23 22.4 µM | CCRF-CEM 26.2 µM | SW-620 30.5 µM | HT-29 23.4 µM | HCT-116 16.3 µM | EKVX 31.3 µM | A549 35.7 µM | K562 29.9 µM | LOX IMVI 21.1 µM | SNB-19 41.1 µM | MCF7 28.2 µM

CCOC(=O)c1ccc(N2C(=O)/C(=C/c3ccc(N(CCC#N)CCC#N)cc3)N=C2c2cc([N+](=O)[O-])ccc2Cl)cc1
inactive: NCI-H522 > 100 µM | OVCAR-5 > 100 µM | SK-OV-3 > 100 µM | SK-MEL-5 > 100 µM | RPMI-8226 > 100 µM | SF-268 > 100 µM | COLO 205 > 100 µM | NCI-H23 > 100 µM | CCRF-CEM > 100 µM | SW-620 > 100 µM | HCT-116 > 100 µM | DLD-1 > 100 µM | EKVX > 100 µM | A549 > 100 µM | K562 > 100 µM | LOX IMVI > 100 µM | SNB-19 > 100 µM

OCC(O)COc1ccc(Br)cc1 (centres undefined)
inactive: NCI-H522 > 100 µM | OVCAR-5 > 100 µM | SK-OV-3 > 100 µM | SK-MEL-5 > 100 µM | RPMI-8226 > 100 µM | SF-268 > 100 µM | NCI-H460 > 10 µM | COLO 205 > 100 µM | NCI-H23 > 100 µM | CCRF-CEM > 100 µM | SW-620 > 100 µM | HT-29 > 100 µM | HCT-116 > 100 µM | DLD-1 > 100 µM | EKVX > 100 µM | A549 50.7 µM | K562 > 100 µM | LOX IMVI > 100 µM | SNB-19 > 100 µM
